From patent US20160037775A1, “ACTIVE INGREDIENT COMBINATIONS HAVING INSECTICIDAL AND ACARICIDAL PROPERTIES” (priority 2010, published 2016)
Where two headings read alike, the source gives them in different places.

Legend:
Format in all cases: in vivo
Spodoptera frugiperda = assay: whole plant or invertebrate
Excerpt: (§1) If the actual kill rate is greater than that calculated, the kill rate of the combination is superadditive, which means that a synergistic effect is present. In this case, the kill rate actually observed must be greater than the value calculated from the above formula for the expected kill rate (E).
(§2) • 78 parts by weight of acetone • 1.5 parts by weight of dimethylformamide Emulsifier: 0.5 part by weight of alkylaryl polyglycol ether
(§3) To produce an appropriate active ingredient formulation, 1 part by weight of active ingredient is mixed with the stated amounts of solvent and emulsifier, and the concentrate is diluted with emulsifier-containing water to the desired concentration.
After the desired time, the kill in % is determined. 100% means that all caterpillars have been killed; 0% means that none of the caterpillars have been killed. The kill rates determined are entered into Colby's formula.

Myzus persicae = assay: whole plant or invertebrate
Excerpt: as §1, §2, §3
After the desired time, the kill in % is determined. 100% means that all aphids have been killed; 0% means that no aphids have been killed. The kill rates determined are entered into Colby's formula.

Tetranychus urticae = assay: Tetranychus test (OP-resistant/spray treatment); conditions: applied individually
Excerpt: (§4) The expected action for a given combination of two active ingredients can be calculated according to S. R. Colby, Weeds 15 (1967), 20-22 as follows:
(§5) • X is the kill rate, expressed in % of the untreated control, in the case of use of active ingredient A in an application rate of m g/ha or in a concentration of m ppm, • Y is the kill rate, expressed in % of the untreated control, in the case of use of active ingredient B in an application rate of n g/ha or in a concentration of n ppm, and • E is the kill rate, expressed in % of the untreated control, in the case of use of active ingredients A and B in application rates of m and n g/ha or in a concentration of m and n ppm, then
as §1, §2, §3
Discs of bean leaves (Phaseolus vulgaris) infested by all stages of the two-spotted spider mite (Tetranychus urticae) are sprayed with an active ingredient formulation of the desired concentration.
After the desired period of time, the effect in % is determined. 100% means that all of the spider mites have been killed; 0% means that none of the spider mites have been killed.

Phaedon cochleariae = assay: whole plant or invertebrate
Excerpt: as §4, §5, §1, §2, §3
Cabbage leaves (Brassica oleracea) are treated by spraying with the active ingredient formulation of the desired concentration and populated with larvae of the mustard beetle (Phaedon cochleariae) while the leaves are still moist.
After the desired period of time, the kill rate in % is determined. 100% means that all beetle larvae have been killed; 0% means that none of the beetle larvae have been killed. The kill rates determined are entered into Colby's formula.

[1] = Spodoptera frugiperda, 144 h, 0.8 g/ha, after 6 d, read-out: Kill rate in % after 6 d
[2] = Myzus persicae, 144 h, after 6 d, read-out: Kill rate in % after 6 d
[3] = Phaedon cochleariae, 144 h, 4 g/ha, after 6 d, read-out: Kill rate in % after 6 d
[4] = Spodoptera frugiperda, 144 h, after 6 d, read-out: Kill rate in % after 6 d

O=C(NC(=O)c1c(F)cccc1F)Nc1ccc(Oc2ccc(C(F)(F)F)cc2Cl)cc1F [flufenoxuron]
pest or weed control at 0.8 g/ha (Spodoptera frugiperda; [1]): 0% | pest or weed control at 0.8 g/ha (Myzus persicae; [2]): 0%

COC(=O)N(C(=O)N1CO[C@@]2(C(=O)OC)Cc3cc(Cl)ccc3C2=N1)c1ccc(OC(F)(F)F)cc1 [indoxacarb]
Kill rate in % after 2 d (Spodoptera frugiperda; 0.8 g/ha, after 2 d): 50% | Kill rate in % after 1 d (Myzus persicae; 20 g/ha, after 1 d): 0%

O=C(NC(=O)c1c(F)cccc1F)Nc1cc(Cl)c(OC(F)(F)C(F)C(F)(F)F)cc1Cl (stereo not shown) [lufenuron]
pest or weed control at 100 g/ha (Tetranychus urticae; Tetranychus urticae, 48 h, 100 g/ha, after 2 d, read-out: Kill rate in % after 2 d): 0% | pest or weed control at 0.8 g/ha (Spodoptera frugiperda; [1]): 17%

O=C(NC(=O)c1ccccc1Cl)Nc1ccc(OC(F)(F)F)cc1 [triflumuron]
pest or weed control at 4 g/ha (Phaedon cochleariae; [3]): 0% | pest or weed control at 4 g/ha (Myzus persicae; Myzus persicae, 144 h, 4 g/ha, after 6 d, read-out: Kill rate in % after 6 d): 0% | pest or weed control at 20 g/ha (Myzus persicae; Myzus persicae, 144 h, 20 g/ha, after 6 d, read-out: Kill rate in % after 6 d): 0%

COCCOC(=O)C(C#N)(C(=O)c1ccccc1C(F)(F)F)c1ccc(C(C)(C)C)cc1 (stereo not shown) [cyflumetofen]
pest or weed control at 4 g/ha (Spodoptera frugiperda; Spodoptera frugiperda, 144 h, 4 g/ha, after 6 d, read-out: Kill rate in % after 6 d): 17% | pest or weed control at 4 g/ha (Phaedon cochleariae; [3]): 0%

Cc1c(COC(=O)[C@@H]2[C@H](/C=C(\Cl)C(F)(F)F)C2(C)C)cccc1-c1ccccc1 (racemic) [bifenthrin]
pest or weed control at 0.16 g/ha (Tetranychus urticae; Tetranychus urticae, 48 h, 0.16 g/ha, after 2 d, read-out: Kill rate in % after 2 d): 0% | pest or weed control at 0.8 g/ha (Myzus persicae; Myzus persicae, 24 h, after 1 d, read-out: Kill rate in % after 1 d): 80%

CC1(C)[C@H](C(=O)O[C@H](C#N)c2cccc(Oc3ccccc3)c2)[C@@H]1/C=C(\Cl)C(F)(F)F [L-cyhalothrin]
pest or weed control at 4 g/ha (Tetranychus urticae; Tetranychus urticae, 144 h, 4 g/ha, after 6 d, read-out: Kill rate in % after 6 d): 20% | pest or weed control at 0.032 g/ha (Spodoptera frugiperda; [4]): 0% | pest or weed control at 0.16 g/ha (Myzus persicae; Myzus persicae, 24 h, 0.16 g/ha, after 1 d, read-out: Kill rate in % after 1 d): 0%

CCCSP(=O)(OCC)SCCC [ethoprophos]
pest or weed control at 0.8 g/ha (Phaedon cochleariae; Phaedon cochleariae, 144 h, 0.8 g/ha, after 6 d, read-out: Kill rate in % after 6 d): 0% | pest or weed control at 4 g/ha (Myzus persicae; Myzus persicae, 144 h, read-out: Kill rate in % after 6 d): 0%

Cc1cc(C)c(C2=C(OC(=O)CC(C)(C)C)C3(CCCC3)OC2=O)c(C)c1 [spiromesifen]
Kill rate in % after 6 d (Tetranychus urticae; 4 g/ha, after 6 d): 70% | Kill rate in % after 6 d (Tetranychus urticae; 20 g/ha, after 6 d): 80% | Kill rate in % after 1 d (Myzus persicae; 4 g/ha, after 1 d): 0%

CC1(C)C(C=C(Cl)Cl)C1C(=O)OC(C#N)c1ccc(F)c(Oc2ccccc2)c1 (stereo not drawn) [β-cyfluthrin]
Kill rate in % after 2 d (Phaedon cochleariae; 0.032 g/ha, after 2 d): 0% | Kill rate in % after 1 d (Myzus persicae; 0.032 g/ha, after 1 d): 0% | Kill rate in % after 1 d (Myzus persicae; 0.16 g/ha, after 1 d): 70%

CNC(=O)c1cc(Cl)cc(C)c1NC(=O)c1cc(Br)nn1-c1ncccc1Cl [chloranthraniliprole]
pest or weed control at 0.032 g/ha (Spodoptera frugiperda; [4]): 50%

N#Cc1nn(-c2c(Cl)cc(C(F)(F)F)cc2Cl)c(N)c1[S+]([O-])C(F)(F)F (stereo not shown) [fipronil]
Kill rate in % after 2 d (Phaedon cochleariae; 0.16 g/ha, after 2 d): 67% | pest or weed control at 0.16 g/ha (Myzus persicae; Myzus persicae, 144 h, 0.16 g/ha, after 6 d, read-out: Kill rate in % after 6 d): 0%

Fc1cncc(-c2ncc(-c3cccc(-c4ncccn4)n3)s2)c1 [2-{6-[2-(5-fluoropyridin-3-yl)-1,3-thiazol-5-yl]pyridin-2-yl}pyrimidine]
pest or weed control at 0.16 g/ha (Phaedon cochleariae; Phaedon cochleariae, 144 h, 0.16 g/ha, after 6 d, read-out: Kill rate in % after 6 d): 0% | pest or weed control at 0.8 g/ha (Myzus persicae; [2]): 70%

abamectin
Kill rate in % after 6 d (Tetranychus urticae; 0.0064 g/ha, after 6 d): 0% | Kill rate in % after 6 d (Tetranychus urticae; 0.032 g/ha, after 6 d): 80% | Kill rate in % after 6 d (Phaedon cochleariae; 0.032 g/ha, after 6 d): 0% | Kill rate in % after 1 d (Myzus persicae; 0.16 g/ha, after 1 d): 0%

CN/C(=N/CC1CCOC1)N[N+](=O)[O-] (stereo not shown) [dinotefuran]
Kill rate in % after 2 d (Phaedon cochleariae; in vivo): 0%

CCOP(=S)(OCC)Oc1nc(Cl)c(Cl)cc1Cl [chlorpyrifos]
pest or weed control at 100 g/ha (Tetranychus urticae; Tetranychus urticae, 144 h, 100 g/ha, after 6 d, read-out: Kill rate in % after 6 d): 0% | pest or weed control at 4 g/ha (Myzus persicae; Myzus persicae, 24 h, 4 g/ha, after 1 d, read-out: Kill rate in % after 1 d): 80%

CCC(C)(C)C(=O)OC1=C(c2ccc(Cl)cc2Cl)C(=O)OC12CCCCC2 [spirodiclofen]
Kill rate in % after 2 d (Tetranychus urticae; 100 g/ha, after 2 d): 0% | Kill rate in % after 6 d (Phaedon cochleariae; 4 g/ha, after 6 d): 0% | Kill rate in % after 1 d (Myzus persicae; 20 g/ha, after 1 d): 0% | Kill rate in % after 1 d (Myzus persicae; 100 g/ha, after 1 d): 0%
